From paper PMC12670160, “A drug-repurposing screen of FDA- and EMA-approved drugs identifies two NF-κB inhibitors active against eumycetoma” (Journal of Antimicrobial Chemotherapy, 2025)
In brackets after ≈: the same amount, converted by molar mass. Structures can show the parent of a compound that is named as a salt. Where two headings read alike, the source gives them in different places.

Assays:
M. mycetomatis strain I1 = assay: IC50 and MIC determination, CellTiter-Glo, strain I1; format: cell-based, Madurella mycetomatis
M. mycetomatis [1] = assay: In vitro susceptibility, averages over M. mycetomatis isolates (average metabolic activity at 2 µM, mean MIC); format: cell-based, Madurella mycetomatis; conditions: for Average metabolic activity at 2 µM (%): 4 days at 37°C, CellTiter-Glo, average of 3 isolates, 20% or below = inhibition
[2] = tested on: M. mycetomatis strain mm55; assay: IC50 and MIC determination, CellTiter-Glo, strain mm55; format: cell-based, Madurella mycetomatis; conditions: for IC50: concentration inhibiting 50% of fungal hyphae growth; for MIC: concentration with complete growth inhibition
[3] = tested on: healthy uninfected G. mellonella larvae; conditions: for Toxicity in G. mellonella larvae at concentrations as low as 0.5 µM: tested at 20, 10, 5, 1 and 0.5 µM
Procedure: (§1) For in vivo experiments, sixth-week instar G. mellonella larvae were purchased from Blue-Lagoon, Maassluis, The Netherlands. The larvae were raised and kept in the dark at room temperature. Larvae without any discoloration and weighing around 500 mg were selected for experiments.
To determine the toxicity, 15 healthy uninfected larvae were injected with 20 µL of 20 µM compound as previously described.[16] […] As a control, a separate group of larvae were injected with 20 µL of PBS. Larvae were housed in Petri dishes with Whatman paper at 37°C in the dark. Survival was monitored for 10 days.

M. mycetomatis strain P1 = assay: IC50 and MIC determination, CellTiter-Glo, strain P1; format: cell-based, Madurella mycetomatis
[4] = tested on: M. mycetomatis MM55-infected G. mellonella larvae; assay: Therapeutic efficacy in M. mycetomatis-infected G. mellonella larvae (survival, log-rank); format: in vivo, Galleria mellonella
Procedure: as §1
The wet weight was determined and 10 mL of PBS per gram of mycelia was added. The suspension was then sonicated for 2 min to achieve a particle size of 10 µm. The fungal suspension (4 mg/40 µL) was injected into the last left pro-leg of a healthy G. mellonella larva with an insulin 29G U-100 needle to reach a final inoculum of 4 mg/larva. Larvae were placed in Petri dishes containing Whatman paper in a 37°C incubator.
A control group was also included in which M. mycetomatis-infected larvae were treated with PBS or with 1 mg/kg amphotericin B (Fungizone, Bristol Myers Squibb, Utrecht, The Netherlands). […] The treatment was repeated at 28 h post infection and 52 h post infection via different prolegs. The infection was monitored for 10 days.
To compare the survival rates between PBS treatment control and the different experimental groups a log-rank test was performed. All data were processed and performed in GraphPad Prism 10.

M. mycetomatis [5] = assay: In vitro susceptibility, averages over M. mycetomatis isolates (average metabolic activity at 2 µM, mean MIC); format: cell-based; conditions: Madurella mycetomatis, 96 h, 4 days at 37°C, CellTiter-Glo, average of 3 isolates, 20% or below = inhibition
Procedure: M. mycetomatis isolate MM55 was used to screen the Oncode library. This strain was kindly provided by Prof. […] The three M. mycetomatis isolates were identified by ITS sequencing and maintained at −80°C at Erasmus MC. Prior to in vitro screening, isolates were cultured on Sabouraud agar plates (BD, Erembodegem, Belgium) at 37°C.
The Oncode Drug Repurposing library was based on the drug repurposing library from the Drug Repurposing Hub of the Broad Institute and recreated by the Oncode institute.[13] […] Each well of the 384-well plates contained 0.6 µL of a 200 µM stock concentration of compound, resulting in a final concentration of 2 µM when the fungus was added. […] Furthermore, this concentration could also be reached in the G. mellonella larvae.[8],[11] The prepared 384-well plates were transferred on dry ice to the Erasmus MC and stored at −80°C until they were screened.
Each plate also contained a growth control (60 µL of M. mycetomatis hyphal suspension, plus 0.6 µL of DMSO) and a negative control (60 µL of culture medium, plus 0.6 µL of DMSO). Plates were then incubated for 4 days at 37°C, after which 30 µL of CellTiter-Glo 3D Cell Viability reagent was added to every well.[19] After 25 min of incubation at room temperature, the luminescence was measured with a CytoFluor Series 4000 luminometer (PerSeptive Biosystems, Framingham, MA, USA). To determine the metabolic activity, the following formula was used:
Percentagemetabolicactivity=(Absorbancetestluminensence−AbsorbanceNCluminensence/AbsorbanceGCluminensence−AbsorbanceNCluminensence)×100
where, GC is growth control and NC is negative control. The luminescence measured for the GC is considered as 100% metabolic activity. The luminescence for the NC is considered as 0% metabolic activity.

[6] = 20 µL of 10 µM at 4, 28 and 52 h post infection, 10 days
[7] = 20 µL of 20 µM injected, 10 day observation, toxic if more than 20% of larvae died
[8] = 20 µL of 20 µM at 4, 28 and 52 h post infection, 10 days

| Molecule | IC50 (M. mycetomatis strain I1; Madurella mycetomatis, I1) [µM] | MIC (M. mycetomatis strain I1; Madurella mycetomatis, I1) [µM] | IC50 ([2]; Madurella mycetomatis) [µM] | MIC ([2]; Madurella mycetomatis) [µM] | activity at 2 µM (M. mycetomatis [5]) [%] | IC50 (M. mycetomatis strain P1; Madurella mycetomatis, P1) [µM] | MIC (M. mycetomatis strain P1; Madurella mycetomatis, P1) [µM] | also measured |
| --- | --- | --- | --- | --- | --- | --- | --- | --- |
| Bleomycin | – | – | – | – | – | – | – | IC50 (M. mycetomatis strain I1; strain I1): 0.2 µM; MIC (M. mycetomatis strain I1; strain I1): 0.25 µM; Average metabolic activity at 2 µM (%) (M. mycetomatis [1]): 1.6%; IC50 [2]: 0.21 µM; MIC [2]: 0.50 µM; Toxicity in G. mellonella larvae at concentrations as low as 0.5 µM ([3]; 10 day observation): toxic; IC50 (M. mycetomatis strain P1; strain P1): < 0.03 µM; MIC (M. mycetomatis strain P1; strain P1): 0.03 µM |
| CC(C)(C)c1cc(C=C(C#N)C#N)cc(C(C)(C)C)c1O [Tyrphostin 9] | 0.78 | 1 (≈ 0.282 µg/mL) | 1.36 | 2 (≈ 0.565 µg/mL) | 1.5 | 1.22 | 2 (≈ 0.565 µg/mL) | Survival of M. mycetomatis-infected larvae versus PBS [4, 6]: Decreased survival; Toxicity in G. mellonella larvae at 20 µM [3, 7]: toxicity was noted |
| CCCCC(CC)CNC(=N)NC(=N)NCCCCCCNC(=N)NC(=N)NCC(CC)CCCC (centres unmarked) [Alexidine dihydrochloride] | 0.8 | > 2 | 1.32 | 2 | 4.4 | 1.78 | > 2 | MIC (M. mycetomatis [1]; Madurella mycetomatis, mean/average over strains MM55, P1 and I1): > 2 µM |
| C=CCOC(Cn1ccnc1)c1ccc(Cl)cc1Cl (centres unmarked) [Enilconazole sulphate] | 0.42 | 0.5 | 1.25 | 2 | 1.3 | 0.56 | 1 | – |
| OCCCNc1cc(-c2ccnc(Nc3cccc(Cl)c3)n2)ccn1 [cgp60474] | 0.81 | 1 (≈ 0.356 µg/mL) | 1.55 | 2 (≈ 0.712 µg/mL) | 7.4 | 0.64 | 1 (≈ 0.356 µg/mL) | Survival of M. mycetomatis-infected larvae versus PBS [4, 8]: No prolonged survival; Toxicity in G. mellonella larvae at 20 µM ([3]; in vivo): not toxic |
| Cc1ccc2c(Br)cc(Br)c(OC(=O)c3ccccc3)c2n1 [Broxaldine] | 1.31 | 2 (≈ 0.842 µg/mL) | 1.25 | 2 (≈ 0.842 µg/mL) | 4.8 | 0.63 | 1 (≈ 0.421 µg/mL) | Survival of M. mycetomatis-infected larvae versus PBS [4, 8]: No prolonged survival; Toxicity in G. mellonella larvae at 20 µM ([3]; in vivo): not toxic |
| Oc1c(I)cc(Cl)c2cccnc12 [Clioquinol] | 1.7 | 2 (≈ 0.611 µg/mL) | 1.2 | 2 (≈ 0.611 µg/mL) | 0 | 0.38 | 0.5 (≈ 0.153 µg/mL) | Survival of M. mycetomatis-infected larvae versus PBS [4, 8]: No prolonged survival; Toxicity in G. mellonella larvae at 20 µM ([3]; in vivo): not toxic |
| C[C@@H](c1nc(-c2ccc(C#N)cc2)cs1)[C@](O)(Cn1cncn1)c1cc(F)ccc1F [Isavuconazole] | 0.05 | 0.06 (≈ 0.0262 µg/mL) | 0.43 | 1 (≈ 0.437 µg/mL) | 2.1 | < 0.03 | 0.03 (≈ 0.0131 µg/mL) | – |
| Clc1ccc(C(Cn2ccnc2)OCc2ccsc2Cl)c(Cl)c1 (centres unmarked) [Tioconazole] | 0.33 | 0.5 (≈ 0.194 µg/mL) | 1.24 | 2 (≈ 0.775 µg/mL) | 3.2 | 0.39 | 0.5 (≈ 0.194 µg/mL) | – |
| Clc1ccccc1C(c1ccccc1)(c1ccccc1)n1ccnc1 [Clotrimazole] | – | 0.5 (≈ 0.172 µg/mL) | – | 1 (≈ 0.345 µg/mL) | 4 | – | 1 (≈ 0.345 µg/mL) | – |
| Fc1ccc(C(c2ccccc2)(c2ccccc2F)n2ccnc2)cc1 (centres unmarked) [Flutrimazole] | 0.42 | 0.5 (≈ 0.173 µg/mL) | 0.92 | 2 (≈ 0.693 µg/mL) | 0 | 0.37 | 0.5 (≈ 0.173 µg/mL) | – |
| Clc1ccc(C(Cn2ccnc2)OCc2c(Cl)cccc2Cl)c(Cl)c1 (centres unmarked) [Isoconazole nitrate (Travogen), Isoconazole nitrate] | 0.36 | 0.5 | 1.42 | 2 | 1.2 | 0.06 | 0.5 | – |
| Clc1ccc(COC(Cn2ccnc2)c2ccc(Cl)cc2Cl)c(Cl)c1 (centres unmarked) [Miconazole nitrate] | – | 0.06 | – | 1 | 1 | – | 0.5 | – |
| Oc1c(Br)cc(Br)c2cccnc12 [Broxyquinoline] | 1.29 | 2 (≈ 0.606 µg/mL) | 1.6 | 2 (≈ 0.606 µg/mL) | 3.3 | 0.56 | 2 (≈ 0.606 µg/mL) | Survival of M. mycetomatis-infected larvae versus PBS [4, 8]: No prolonged survival; Toxicity in G. mellonella larvae at 20 µM ([3]; in vivo): not toxic |
| C/C(=N\NC(=S)N1CCC1)c1ccccn1 [nsc319726] | 1.04 | 2 (≈ 0.469 µg/mL) | 1.61 | 2 (≈ 0.469 µg/mL) | 4.1 | 0.74 | 2 (≈ 0.469 µg/mL) | Survival of M. mycetomatis-infected larvae versus PBS [4, 6]: No prolonged survival; Toxicity in G. mellonella larvae at 20 µM [3, 7]: toxicity was noted |
| C[C@@H]1[C@H](O)[C@@H](C)/C=C/C=C/C=C/C=C/C=C/C=C/C=C/[C@H](O[C@@H]2O[C@H](C)[C@@H](O)[C@H](N)[C@@H]2O)C[C@@H]2O[C@](O)(C[C@@H](O)C[C@@H](O)[C@H](O)CC[C@@H](O)C[C@@H](O)CC(=O)O[C@H]1C)C[C@H](O)[C@H]2C(=O)O [amphotericin B] | – | – | – | – | – | – | – | Survival of M. mycetomatis-infected larvae versus PBS ([4]; 1 mg/kg amphotericin B, infected treated control): prolonged the survival |
| CC(=O)[O][Hg][c]1ccccc1 [Phenylmercuric acetate] | – | – | – | – | – | – | – | IC50 (M. mycetomatis strain I1; strain I1): 0.45 µM; MIC (M. mycetomatis strain I1; strain I1): 0.50 µM; Average metabolic activity at 2 µM (%) (M. mycetomatis [1]): 2.0%; IC50 [2]: 1.12 µM; MIC [2]: 2.00 µM; Toxicity in G. mellonella larvae at concentrations as low as 0.5 µM ([3]; 10 day observation): toxic; IC50 (M. mycetomatis strain P1; strain P1): < 0.03 µM; MIC (M. mycetomatis strain P1; strain P1): 0.03 µM |
